In data set [1] the target is T1, MAO-A (Mus musculus, UniProt Q64133).
T1 construct: from tissue; host or cells: mouse brain
T1 sequence (Q64133 1-526): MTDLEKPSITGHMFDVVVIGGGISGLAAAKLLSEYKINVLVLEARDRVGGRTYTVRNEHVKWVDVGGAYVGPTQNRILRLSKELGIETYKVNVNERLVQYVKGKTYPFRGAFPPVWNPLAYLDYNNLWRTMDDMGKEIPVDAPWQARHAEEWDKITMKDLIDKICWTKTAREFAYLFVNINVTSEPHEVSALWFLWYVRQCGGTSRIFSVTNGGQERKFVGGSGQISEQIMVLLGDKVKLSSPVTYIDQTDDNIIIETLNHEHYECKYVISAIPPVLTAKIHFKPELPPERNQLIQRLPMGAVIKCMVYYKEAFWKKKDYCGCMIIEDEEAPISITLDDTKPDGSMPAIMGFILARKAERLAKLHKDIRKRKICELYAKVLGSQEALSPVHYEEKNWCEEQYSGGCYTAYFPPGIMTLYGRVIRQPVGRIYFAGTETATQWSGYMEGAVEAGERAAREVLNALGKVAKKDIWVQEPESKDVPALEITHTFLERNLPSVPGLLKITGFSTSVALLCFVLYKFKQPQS
In words: Inhibition of MAO activity ex vivo (brain). The data set is classed as in vivo, mice. Put shortly:
(§1)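 Male Sabra mice dosed with compound in 0.9% saline (2-3 per dose) and killed 2 h post-dose or at peak AChE-inhibition time. Brain homogenized in 0.3 M sucrose and assayed for MAO activity with 50 μM PEA (MAO-B) or 1 mM 5-HT (MAO-A) as substrate.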

In another data set the target is T2, MAO-B (Mus musculus, UniProt Q8BW75).
T2 construct: from tissue; host or cells: mouse brain
T2 sequence (Q8BW75 1-520): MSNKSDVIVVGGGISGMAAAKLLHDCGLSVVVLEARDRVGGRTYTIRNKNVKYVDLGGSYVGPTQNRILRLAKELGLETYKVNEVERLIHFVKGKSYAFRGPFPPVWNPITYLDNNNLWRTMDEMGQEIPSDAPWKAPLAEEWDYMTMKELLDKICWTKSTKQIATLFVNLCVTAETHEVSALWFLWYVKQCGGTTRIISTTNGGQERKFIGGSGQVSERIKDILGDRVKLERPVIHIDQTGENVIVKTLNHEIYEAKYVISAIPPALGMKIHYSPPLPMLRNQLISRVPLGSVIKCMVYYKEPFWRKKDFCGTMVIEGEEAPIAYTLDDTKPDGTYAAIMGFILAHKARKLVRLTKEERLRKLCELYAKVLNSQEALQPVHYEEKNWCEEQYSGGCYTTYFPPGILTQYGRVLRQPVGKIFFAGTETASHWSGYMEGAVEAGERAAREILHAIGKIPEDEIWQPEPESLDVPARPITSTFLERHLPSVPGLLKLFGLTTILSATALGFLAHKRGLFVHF
In words: Inhibition of MAO activity ex vivo (brain). The data set is classed as in vivo, mice. Put shortly:
as §1

Data set [2] deals with mice, hypobaric hypoxic model. In words: animal or person. It counts as in vivo. Particulars: Mus musculus; for response vs control in vivo at 8 mg/kg: read-out: Protection (survival time), 8 mg/kg sc, 60 min before hypoxia. The source says: A 12 liter desiccator (desiccator A) and a 2.5 liter desiccator (desiccator B) were separately connected to a vacuum pump. Desiccator B was disconnected and allowed to equilibrate with room air whilst desiccator A was evacuated to a pressure of 100 mmHg. Four male ICR albino mice (22-28 g) were placed in desiccator B. Desiccator B was then closed to room air and connected to desiccator A. The pressure inside desiccator B was monitored using a mercury manometer and at the point were the pressure in desiccator B reached 200 mmpg (usually within 14 seconds), the two desiccators were disconnected from the vacuum pump and the pump switched off. The survival time from the moment of induction of hypoxia to the time of cessation of respiration was recorded for each mouse for a maximum of 15 minutes after which time room air was reintroduced to desiccator B. Survivors were monitored for signs of lethargy or vitality.
Effect of drug treatment was assessed as the percent of the survival time of the drug treated group with respect to the saline injected or vehicle injected control group. […] The effect of each dose of test drug was determined in duplicate i.e. two groups of 4 mice.
Positive reference drugs were sodium pentobarbital at a dose of 40 mg/kg, and diazepam 10 mg/kg given 0.5 h prior to hypoxia, physostigmine 0.2 and 0.4 mg/kg and neostigmine 0.2 mg/kg given sc 30 min before hypoxia. Methyl atropine 1 mg/kg was given sc. 10 min. before physostigmine.
Test drugs were dissolved in 0.9% saline, and injected sc. in the nip of the neck at a dose in accordance with body weight, 60-90 min. before hypoxia. The volume of injection was 0.2-0.3 mL per mouse (10 mL/kg). The initial dose was about one third of the reported LD50 for acetylcholine esterase inhibition. If no protection could be obtained, the dose was further increased to the nearest non-toxic dose. In case of protection, the dose was further reduced in an attempt to locate the “protective” dose range.

The target of data set [3] is T3, MAO-A (Rattus norvegicus, UniProt P21396).
T3 sequence (P21396 1-526): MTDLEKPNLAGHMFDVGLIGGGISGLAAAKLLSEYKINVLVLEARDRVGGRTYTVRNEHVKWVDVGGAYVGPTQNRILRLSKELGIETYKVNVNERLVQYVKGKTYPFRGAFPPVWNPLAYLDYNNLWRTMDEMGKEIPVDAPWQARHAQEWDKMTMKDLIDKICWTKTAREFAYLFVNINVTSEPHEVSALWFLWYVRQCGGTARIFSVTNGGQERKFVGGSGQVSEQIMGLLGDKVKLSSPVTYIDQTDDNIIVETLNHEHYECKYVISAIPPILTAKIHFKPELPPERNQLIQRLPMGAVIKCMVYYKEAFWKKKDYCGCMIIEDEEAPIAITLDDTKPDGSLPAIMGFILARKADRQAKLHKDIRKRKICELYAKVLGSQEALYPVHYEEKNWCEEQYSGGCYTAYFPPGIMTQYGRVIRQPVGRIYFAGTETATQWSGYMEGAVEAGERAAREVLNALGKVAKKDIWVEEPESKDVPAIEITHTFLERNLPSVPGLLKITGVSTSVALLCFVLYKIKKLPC
In words: Inhibition of MAO activity in vitro, 5-HT as substrate. The data set is classed as biochemical. On the set-up: The MAO enzyme source was a homogenate of rat brain in 0.3M sucrose; from tissue; host or cells: rat brain homogenate, 600 g supernatant. Here is the method:
Substrate concentrations used were 50 μM (PEA) and 1 mM (5-HT).

Where [4] appears, read: mice, within 6 hours after administration.
Setting [5] is: MAO-A Inhibition In vitro IC50, rat brain homogenate, 5-HT substrate.
Setting [6] is: sc, read-out: Protection (survival time), 50 mg/kg sc, 60 min before hypoxia.

The values that follow come from patent USRE39616E1, “Aminoindan derivatives” (priority 1996, dated 2007).

SMILES strings stand for the structures. Counter-ions that a name gives are not always drawn. Like-named read-outs stand apart in the source and are kept apart here. Some results are limits rather than exact numbers.

As for `CN(C)C(=O)Oc1ccc2c(c1)C(N)CC2` (centres unmarked) [Compound 1], the “MAO-A Inhibition Ex vivo ED50” value at MAO-A [1] (mice, brain tissue) was >>80 μmoles/kg. The “MAO-B Inhibition Ex vivo ED50” value on MAO-B (mice, brain tissue) is >>80 μmoles/kg. In data set [2] (sc, read-out: Protection (survival time), 2 mg/kg sc, 60 min before hypoxia), the response vs control in vivo at 2 mg/kg is 120 ± 51%. In addition, the response vs control in vivo at 4 mg/kg in data set [2] (sc, read-out: Protection (survival time), 4 mg/kg sc, 60 min before hypoxia) was determined as 470 ± 200%. For the same compound, the response vs control in vivo at 8 mg/kg in data set [2] (sc) was found to be 637 ± 116%. The “Acute Toxicity LD50 (LD)” value in the data set with mice (setting [4]) amounted to 83.8 µmol/kg. The same compound returned an IC50 on MAO-A [3] (setting [5]) of 75 µM.

In the case of `C#CCNC1CCc2ccc(OC(=O)N(C)C)cc21` (centres unmarked) [Compound 24, 6-(N,N-Dimethylcarbamyloxy)-N-propargyl aminoindan mesylate], the “MAO-A Inhibition Ex vivo ED50” value on MAO-A [1] (mice, brain tissue) is greater than 120 µmol/kg. Moreover, on MAO-B (mice, brain tissue), the “MAO-B Inhibition Ex vivo ED50” value worked out at 100 µmol/kg. The response vs control in vivo at 21 mg/kg in data set [2] (sc, read-out: Protection (survival time), 21 mg/kg sc, 60 min before hypoxia) amounted to 269 ± 166%. In addition, the response vs control in vivo at 50 mg/kg in data set [2] (setting [6]) was 738%. For the same compound, the “Acute Toxicity LD50 (LD)” value in the data set with mice (mouse, in vivo) is 179 µmol/kg. The compound also registered an IC50 at MAO-A [3] (setting [5]) of 850 µM.

Regarding `C#CCNC1CCc2cccc(OC(=O)N(C)C)c21` (centres unmarked) [Compound 27], the “MAO-A Inhibition Ex vivo ED50” value on MAO-A [1] (mice, brain tissue) was >>160 μmoles/kg. In addition, on MAO-B (mice, brain tissue), the “MAO-B Inhibition Ex vivo ED50” value was >>160 μmoles/kg. For the same compound, the response vs control in vivo at 3 mg/kg in data set [2] (sc, read-out: Protection (survival time), 3 mg/kg sc, 60 min before hypoxia) turned out to be 287 ± 319%. Moreover, in data set [2] (sc), the response vs control in vivo at 8 mg/kg was 119 ± 45%. In data set [2] (sc, read-out: Protection (survival time), 15 mg/kg sc, 60 min before hypoxia), the response vs control in vivo at 15 mg/kg was found to be 143 ± 56%. Moreover, the response vs control in vivo at 50 mg/kg in data set [2] (setting [6]) turned out to be 455 ± 23%. Moreover, in the data set with mice (mouse, in vivo), the “Acute Toxicity LD50 (LD)” value came out at 300 µmol/kg and the “Therapeutic Ratio LD/AC” value stood at 10. Also, the IC50 against MAO-A [3] (setting [5]) was greater than 1000 µM.

As for `C#CCN(C)C1CCc2ccc(OC(=O)N(C)C)cc21` (centres unmarked) [Compound 29], the “MAO-A Inhibition Ex vivo ED50” value at MAO-A [1] (mice, brain tissue) worked out at 50 µmol/kg. In addition, the “MAO-B Inhibition Ex vivo ED50” value on MAO-B (mice, brain tissue) came to 30 µmol/kg. Moreover, the response vs control in vivo at 25 mg/kg in data set [2] (sc, read-out: Protection (survival time), 25 mg/kg sc, 30 min before hypoxia) turned out to be 273 ± 183%; in data set [2] (sc, read-out: Protection (survival time), 25 mg/kg sc, 60 min before hypoxia) it was 131 ± 56%. Also, the response vs control in vivo at 53 mg/kg in data set [2] (sc, read-out: Protection (survival time), 53 mg/kg sc, 60 min before hypoxia) came out at 638 ± 10%. Besides, in data set [2] (sc, read-out: Protection (survival time), 77 mg/kg sc, 60 min before hypoxia), the response vs control in vivo at 77 mg/kg was found to be 508 ± 206%. In the data set on mice (mouse, in vivo), the “Acute Toxicity LD50 (LD)” value is 500 µmol/kg. In the data set on mice (mouse, in vivo), the “Therapeutic Ratio LD/AC” value came out at 9.3. The compound also registered an IC50 on MAO-A [3] (setting [5]) of 40 µM.

On to `C#CCNC1CCc2ccc(OC(=O)N(C)CC)cc21` (centres unmarked) [Compound 25, 6-(N-Me, N-Etcarbamyloxy) N-propargyl aminoindan, HCl], for which the “MAO-A Inhibition Ex vivo ED50” value on MAO-A [1] (mouse, in vivo) was >>350 μmoles/kg. On MAO-B (mouse, in vivo), the “MAO-B Inhibition Ex vivo ED50” value came out at 200 µmol/kg. Further, in data set [2] (25 mg/kg sc, 60 min before hypoxia, read-out: Protection (survival time)), the response vs control in vivo at 25 mg/kg was 84 ± 35%. Besides, in data set [2] (50 mg/kg sc, 60 min before hypoxia, read-out: Protection (survival time)), the response vs control in vivo at 50 mg/kg is 380 ± 231%. Further, the response vs control in vivo at 75 mg/kg in data set [2] (75 mg/kg sc, 60 min before hypoxia, read-out: Protection (survival time)) turned out to be 559 ± 225%. Further, the response vs control in vivo at 100 mg/kg in data set [2] (100 mg/kg sc, 60 min before hypoxia, read-out: Protection (survival time)) is 761 ± 91%. Besides, the “Acute Toxicity LD50 (LD)” value in the data set with mice (setting [4]) was 1400 µmol/kg. Further, the “Therapeutic Ratio LD/AC” value in the data set with mice (mouse, in vivo) is 10.8. Also, on MAO-A [3] (MAO-A Inhibition In vitro IC50), inhibition was half-maximal at 270 µM (IC50).

For `CCN(C)C(=O)Oc1ccc2c(c1)C(NC)CC2` (centres unmarked) [Compound 10], on MAO-A [1] (mice, brain tissue), the “MAO-A Inhibition Ex vivo ED50” value is greater than 175 µmol/kg. In addition, the “MAO-B Inhibition Ex vivo ED50” value at MAO-B (mice, brain tissue) was greater than 175 µmol/kg. The response vs control in vivo at 10 mg/kg in data set [2] (sc, read-out: Protection (survival time), 10 mg/kg sc, 90 min before hypoxia) was 304 ± 129%. The response vs control in vivo at 25 mg/kg in data set [2] (sc, read-out: Protection (survival time), 25 mg/kg sc, 90 min before hypoxia) worked out at 700 ± 201%. Also, the response vs control in vivo at 50 mg/kg in data set [2] (sc, read-out: Protection (survival time), 50 mg/kg sc, 90 min before hypoxia) came to 705 ± 101%. The “Acute Toxicity LD50 (LD)” value in the data set with mice (setting [4]) came out at 740 µmol/kg. For the same compound, the IC50 at MAO-A [3] (rat brain homogenate, 5-HT substrate, read-out: MAO-A Inhibition In vitro IC50) turned out to be 22 µM.
